In patent publication EP1555271A1, “Peptides useful for diagnosis and therapy of TRP-2+ and/or TRP-1+ tumors” (Deutsches Krebsforschungszentrum Stiftung des öffentlichen …, priority 2004, dated 2005) one finds IC50 data, which are given here for one sequence.

Ends that are not written are not given here.

The target in the experiment is HLA-DRB1*0301 (Homo sapiens, UniProt P01903+P01911, A100K/A102G/A103R/A169T/F55Y/I96L/K41T/L162R/M171V/P40S/Q125H/Q178H/Q39Y/R42S/S66N/T106N/T262R/W38E/Y61H). Description: HLA-DR competitive binding assay on T2.DR3 cells (biotinylated TT829-843 reporter peptide, Europium sandwich immunoassay). The settings on record: dose necessary to reduce TT reporter peptide binding to 50%, 10 µM TT829-843 reporter, 180 min.

“HLLCLERDLQRLIGN [TRP-2223-237, HLLCLERDLQRLIGN]” came in with an IC50 of 7.5 µM.

Usually IC50 stands for the concentration that inhibits the measured activity by half. A high value points to weaker potency.
